pIC50: −log10 of the molar value. Some results are limits rather than exact numbers.

A word on the pIC50: it is the IC50 on a negative log10 scale, so that one unit is a factor of ten.

In one test the target is FKBP (Homo sapiens, UniProt P62942). Kind of test: PPIase Inhibition Assay. The test is classed as biochemical. As to conditions: concentration of inhibitor required for 50% inhibition of enzyme activity; FKBP, substrate Succinyl-Ala-Phe-Pro-Phe-para-nitroanilide; TABLE I. The method, boiled down: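 Chymotrypsin-coupled isomerization of Succinyl-Ala-Phe-Pro-Phe-para-nitroanilide by FKBP in ice-cold 25 mM HEPES pH 7.8, 100 mM NaCl, compound in DMSO. A390 followed 90 sec; first-order rate constants give % activity remaining after subtracting uncatalyzed rate; IC50 by linear regression of V-/V+ versus concentration.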
FKBP, sequence (P62942 whole entry): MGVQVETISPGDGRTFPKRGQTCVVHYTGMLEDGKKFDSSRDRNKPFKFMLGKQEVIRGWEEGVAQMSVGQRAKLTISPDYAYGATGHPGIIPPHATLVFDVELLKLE

For a further test, the system named is human T-cells. Kind of test: Suppression of Human T-Cell Proliferation Assay (PHA-stimulated, [3H]-thymidine incorporation). It counts as cell-based. As to conditions: concentration inhibiting [3H]-thymidine incorporation of PHA-stimulated T-cells by 50%, 72 hours; TABLE 2; read-out: IC50. The method, boiled down: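 SRBC-rosette-purified human peripheral T-cells stimulated with PHA-M (40 μg/ml stock) and compound dilutions, in duplicate, for 72 h at 37° C. Proliferation measured by [3H]-thymidine incorporation during the final 6 h, read by liquid scintillation counting.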
(In general: Incorporation of labelled thymidine or its analogues reports DNA synthesis.)

Another test relates to NF-AT. Kind of test: NF-AT Inhibition Assay Directed β-Galactosidase Expression in FGL-5 cells. Particulars: 50% inhibition of NF-AT directed β-galactosidase activity in FGL-5 cells stimulated with phorbol dibutyrate and ionomycin; TABLE 3. The test is classed as cell-based. As to the method: 3) NF-AT Assay Stimulation of T-cells leads to the appearance of several transcription factors, including one designated "NF-AT". These factors are involved in regulation of gene expression required for immunologic activation. Some of these transcription factors appear to have functions in a wide variety of cell types. By contrast, NF-AT is found primarily in T-cells and its role is restricted to early gene activation. […] Inhibition of NF-AT activity is measured using FGL-5 cells. FGL-5 is a cloned line of stably transfected Jurkat T-cells that contain two construct in which three tandem copies of the NF-AT DNA binding site direct transcription of both murine CD8 and the lacZ gene, encoding β-galactosidase ([…] et al., 1990, Genes & Development 4:1823). When these cells are stimulated with phorbol esters which activate protein kinase C and calcium ionophore to raise the intracellular calcium concentration, transcriptionally active NF-AT is produced. In T-cells, this normally leads to the expression of IL-2, T-cell growth factor. However, in FGL-5 cells NF-AT activation leads to the production of β-galactosidase which can be detected using an appropriate substrate. […] NF-AT Inhibition Assay Directed β-Galactosidase Expression This assay was performed essentially as described (Bierer et al., 1990, Proc. Natl. Acad. Sci. 87:9231). […] The assays were done with exponentially growing cells whose density was not greater than 0.5 million cells/ml. The cells were resuspended to 3 million cells/ml in medium and 0.1 ml was added to wells of a 96-well plate. The compounds of the present invention were dissolved in either ethanol or dimethylsulfoxide at 10 mM and […] of various dilutions in medium were added to cells in duplicate wells. Treatment controls consisted of duplicate wells containing 0.5 ml/well of either medium, ethanol or dimethylsulfoxide. The ethanol and dimethyl sulfoxide were at the same concentration as was used for the compounds. […] Phorbol dibutyrate (Sigma) and Ionomycin (Calbiochem) were dissolved at 50 μg/ml and 2 mM, respectively and stored at -70° C. […] For unstimulated cell controls, 0.5 ml/well of medium was added to duplicate wells. The plates were incubated overnight (16-18 hours) at 37° C. in a humidified atmosphere of 5% CO2 and air. β-galactosidase activity was measured as the fluorescence generated by the cleavage of 4-methyl umbelliferyl-β-D-galactoside (Sigma) at the β-galactoside bond. After overnight incubation, the cells were centrifuged at 500×g for 3 minutes in the 96-well plates and washed 3 times with PBS. […] The percent inhibition by each concentration of the compounds was calculated as: […]

In the case of `CCCCCC1CCC(C(=O)CN2CCC[C@H]2C(=O)N[C@H](C(=O)NCc2ccccc2)[C@@H](C)CC)CC1` (stereo partly drawn) [Example 42, L-Isoleuclne, N-[1-(2-(4-Pentylcyclohexyl)-2-Oxoethyl)-L-Prolyl] Benzylamide], the negative logarithm of the IC50 (pIC50) against FKBP is under 5.30; in the test with human T-cells, 5.15; in the test on NF-AT, 4.66.

For `CC[C@H](C)[C@H](NC(=O)[C@@H]1CCCN1CC(=O)C1CCc2ccccc2C1)C(=O)NCc1ccccc1` (stereo partly drawn) [Example 43, L-Isoleuclne, N-[1-(2-(1,2,3,4-tetrahydro-Napththalen-2-yl)-2-Oxoethyl)-L-Prolyl] Benzylamide], the negative logarithm of the IC50 (pIC50) against FKBP is over 5.30; in the test with human T-cells, 4.80; in the test on NF-AT, 4.85.

Consider `CC[C@H](C)[C@H](NC(=O)[C@@H]1CCCN1CC(=O)C12CC3CC(CC1C3)C2)C(=O)NCc1ccccc1` [Example 45, L-Isoleucine, N-[1-(2-Oxo-2-Tricyclo[3.3.1.0 ^3,7]Non-3-yl-Ethyl)-L-Prolyl] Benzylamide], for which the values for the negative logarithm of the IC50 (pIC50) at FKBP, with human T-cells and in the test with NF-AT were over 5.30, 4.70 and under 4.48, respectively.

For the molecule `CC[C@H](C)[C@H](NC(=O)[C@@H]1CCCN1CC(=O)CC12CC3CC(CC(C)(C3)C1)C2)C(=O)NCc1ccccc1` [Example 46, L-Isoleucine, N-[1-(2-Oxo-3-(3-Methyl-Adamantan-1-yl)-Propyl)-L-Prolyl] Benzylamide], the pIC50 against FKBP was over 5.30; in the test on human T-cells it was 4.89; with NF-AT, 4.82.

On to `O=C(CNC(=O)[C@@H]1CCCN1CC(=O)C12CC3CC(CC(C3)C1)C2)NCc1ccccc1` [Example 55, Glycine, N-[1-(2-Adamantan-1-yl-2-Oxoethyl)-L-Prolyl] Benzylamide], for which the pIC50 against FKBP was 5.29; with human T-cells it was 4.89; in the test with NF-AT, 4.36.

Consider `CC(C)[C@H](NC(=O)[C@@H]1CCCN1CC(=O)C12CC3CC(CC(C3)C1)C2)C(=O)NCc1ccccc1` [Example 56, L-Valine, N-[1-(2-Adamantan-1-yl-2-Oxoethyl)-L-Prolyl] Benzylamide], for which the negative-log IC50 (pIC50) against FKBP was 5.92; with human T-cells it was 5.10; in the test on NF-AT, 4.14.

`CC(C)C[C@H](NC(=O)[C@@H]1CCCN1CC(=O)C12CC3CC(CC(C3)C1)C2)C(=O)NCc1ccccc1` [Example 57, L-Leucine, N-[1-(2-Adamantan-1-yl-2-Oxoethyl)-L-Prolyl] Benzylamide]: the pIC50 was 6.66 against FKBP, 5.10 in the test on human T-cells and under 4.00 in the test on NF-AT.

On to `O=C(NCc1ccccc1)[C@H](Cc1ccccc1)NC(=O)[C@@H]1CCCN1CC(=O)C12CC3CC(CC(C3)C1)C2` [Example 58, L-Phenylalanine, N-[1-(2-Adamantan-1-yl-2-Oxoethyl)-L-Prolyl] Benzylamide], for which the pIC50 was 5.64 against FKBP, 5.15 in the test on human T-cells and 4.70 in the test with NF-AT.

As for `CCC[C@H](NC(=O)[C@@H]1CCCN1CC(=O)C12CC3CC(CC(C3)C1)C2)C(=O)NCc1ccccc1` [Example 59, L-Norvaline, N-[1-(2-Adamantan-1-yl-2-Oxoethyl)-L-Prolyl] Benzylamide], the pIC50 is 6.15 on FKBP, 5.00 with human T-cells and under 4.00 in the test with NF-AT.

Consider `CCCC[C@H](NC(=O)[C@@H]1CCCN1CC(=O)C12CC3CC(CC(C3)C1)C2)C(=O)NCc1ccccc1` [Example 60, L-Norleucine, N-[1-(2-Adamantan-1-yl-2-Oxoethyl)-L-Prolyl] Benzylamide], for which the negative logarithm of the IC50 (pIC50) on FKBP was 6.40; in the test with human T-cells, 4.80; in the test on NF-AT, 4.74.

In the case of `NC(=O)C[C@H](NC(=O)[C@@H]1CCCN1CC(=O)C12CC3CC(CC(C3)C1)C2)C(=O)NCc1ccccc1` [Example 61, L-Asparagine, N-[1-(2-Adamantan-1-yl-2-Oxoethyl)-L-Prolyl] Benzylamide], the negative logarithm of the IC50 (pIC50) against FKBP is over 5.30; in the test with human T-cells it was 4.77; in the test with NF-AT, under 4.00.

On to `O=C(NCc1ccccc1)[C@H](CC1CCCCC1)NC(=O)[C@@H]1CCCN1CC(=O)C12CC3CC(CC(C3)C1)C2` [Example 64, L-Cyclohexylalanine, N-[1-(2-Adamantan-1-yl-2-Oxoethyl)-L-Prolyl] Benzylamide], for which the negative logarithm of the IC50 (pIC50) was over 5.30 against FKBP, 5.15 with human T-cells and 4.80 in the test with NF-AT.

As to `CC[C@H](C)[C@H](NC(=O)[C@@H]1CCCN1CC(=O)C12CC3CC(CC(C3)C1)C2)C(=O)N[C@@H](C)c1ccccc1` [Example 65, L-Isoleucine, N-[1-(2-Adamantan-1-yl-2-Oxoethyl)-L-Prolyl] alpha-(S)-methylbenzylamide], the pIC50 on FKBP is 7.00; in the test on human T-cells, 5.10; in the test on NF-AT, 4.77.

Take `CC[C@H](C)[C@H](NC(=O)[C@@H]1CCCN1CC(=O)C12CC3CC(CC(C3)C1)C2)C(=O)NCc1ccncc1` [Example 67, L-Isoleucine, N-[1-(2-Adamantan-1-yl-2-Oxoethyl)-L-Prolyl] Pyridin-4-ylmethylamide]: the results for the pIC50 against FKBP, with human T-cells and in the test on NF-AT were 6.15, 4.72 and under 4.00, respectively.

Take `CC[C@H](C)[C@H](NC(=O)[C@@H]1CCCN1CC(=O)C12CC3CC(CC(C3)C1)C2)C(=O)NCc1ccccn1` [Example 68, L-Isoleucine, N-[1-(2-Adamantan-1-yl-2-Oxoethyl)-L-Prolyl] Pyridin-2-ylmethylamide]: the negative logarithm of the IC50 (pIC50) was 6.40 against FKBP, 4.80 in the test with human T-cells and 4.22 in the test on NF-AT.

`CC[C@H](C)[C@H](NC(=O)[C@@H]1CCCN1CC(=O)C12CC3CC(CC(C3)C1)C2)C(=O)NCc1ccc(OC)cc1` [Example 69, L-Isoleucine, N-[1-(2-Adamantan-1-yl-2-Oxoethyl)-L-Prolyl] 4-methoxybenzylamide]: the pIC50 on FKBP is 6.70; in the test with human T-cells it was 5.10; in the test on NF-AT it was 4.80.

As for `CC[C@H](C)[C@H](NC(=O)[C@@H]1CCCN1CC(=O)C12CC3CC(CC(C3)C1)C2)C(=O)NCc1ccccc1OC` [Example 70, L-Isoleucine, N-[1-(2-Adamantan-1-yl-2-Oxoethyl)-L-Prolyl] 2-methoxybenzylamide], the results for the pIC50 on FKBP, with human T-cells and in the test on NF-AT were 6.19, 5.15 and 4.80, respectively.

Take `CC[C@H](C)[C@H](NC(=O)[C@@H]1CCCN1CC(=O)OCC=C(C)CCC=C(C)CCC=C(C)C)C(=O)NCc1ccccc1` [Example 83, L-Isoleucine, N-[1-(2-[1-(3,7,11-Trimethyldodeca-2,6,10-trien-1-ol)]-2-Oxoethyl)-L-Proline] Benzylamide]: the results for the pIC50 against FKBP, in the test on human T-cells and in the test on NF-AT were under 5.30, 5.15 and 4.92, respectively.

On to `CC[C@H](C)[C@H](NC(=O)[C@@H]1CCCN1CC(=O)OCC=Cc1ccccc1)C(=O)NCc1ccccc1` [Example 84, L-Isoleucine, N-[1-(2-(3-Phenyl-2-Propen-1-Oxy)-2-Oxoethyl)-L-Prolyl] Benzylamide], for which the pIC50 against FKBP is 5.49; in the test on human T-cells, under 4.00; with NF-AT, under 4.00.

Take `CC[C@H](C)[C@H](NC(=O)[C@@H]1CCCN1CC(=O)OCC=C(C)c1ccccc1)C(=O)NCc1ccccc1` [Example 85, L-Isoleucine, N-[1-(2-(3-Phenyl-3-Methyl-2-Propen-1-Oxy)-2-Oxoethyl)-L-Prolyl] Benzylamide]: the pIC50 against FKBP was over 5.30; with human T-cells, 4.66; in the test on NF-AT, 4.89.

For the origin of these results see patent publication US5686424A, “2-oxoethyl derivatives as immunosuppressants” (Miles Inc., priority 1995, dated 1997).
